According to US20210220356A1, “DIHYDROPYRIMIDINE DERIVATIVES AND USES THEREOF IN THE TREATMENT OF HBV INFECTION OR OF HBV-INDUCED DISEASES” (Janssen Sciences Ireland Unlimited Company, priority 2018, published 2021):
Read-outs that look alike come from different tables or passages of the source.

Assays:
HBV = HBV inhibitory activity in HepG2.2.15 cells (HBV DNA in culture medium by q-PCR); type: cell-based; conditions: HepG2.2.15 cells, 40,000 cells/well, 6 days of compound treatment, HBV DNA in culture medium by q-PCR, highest concentration 10 uM, read-out: EC50
In short: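 HepG2.2.15 cells (40,000/well, 2% FBS) treated 6 days with compounds, medium refreshed once; 8 points, 3-fold dilution, top 10 uM. Secreted HBV DNA in medium extracted and quantified by q-PCR; EC50 calculated from dose-response.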

[1] = Cytotoxicity determination in HepG2.2.15 cells (CCK-8); type: cell-based; conditions: human, HepG2.2.15 cells, HepG2.2.15 cells, 5,000 cells/well, 6 days of compound treatment, CCK-8 absorbance 450 nm, highest concentration 100 uM
In short: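 HepG2.2.15 cells, 5,000/well in 2% FBS medium, treated 6 days with compound (medium refreshed midway), 8-point 3-fold dilutions from 100 uM top. Viability read by CCK-8, 2.5 h at 37° C, absorbance 450 nm with 630 nm reference; CC50 from curve fitting.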

[2] = Hepatitis B virus, HepG2.2.15, 144 h

Compound | EC50 (HBV) [µM] | CC50 at 6 days [1] [µM] | EC50 (HBV; [2]) [µM]
CCOC(=O)C1=C(C2CCc3nn(CCC(=O)O)cc3C2)NC(c2nccs2)=NC1c1cccc(F)c1Br (single isomer, unassigned) [Compound 42b, 3-(5-(6-(2-bromo-3-fluorophenyl)-5-(ethoxycarbonyl)-2-(thiazol-2-yl)-3,6-dihydropyrimidin-4-yl)-4,5,6,7-tetrahydro-2H-indazol-2-yl)propanoic acid] | 0.131 | 10.2 | 
CCOC(=O)C1=C(C2CCc3cn(CCC(=O)O)c(C#N)c3C2)NC(c2nccs2)=NC1c1ccc(F)c(F)c1Cl (centres unmarked) [Compound 63, 3-(6-(6-(2-Chloro-3,4-difluorophenyl)-5-(ethoxycarbonyl)-2-(thiazol-2-yl)-3,6-dihydropyrimidin-4-yl)-1-cyano-4,5,6,7-tetrahydro-2H-isoindol-2-yl)propanoic acid] |  | 5.1 | 0.436
CCOC(=O)C1=C(C2Cc3cn(CCC(=O)O)nc3C(C)(C)C2)NC(c2nccs2)=NC1c1ccc(F)c(F)c1Cl (centres unmarked) [Compound 55a, 3-(5-(6-(2-chloro-3,4-difluorophenyl)-5-(ethoxycarbonyl)-2-(thiazol-2-yl)-3,6-dihydropyrimidin-4-yl)-7,7-dimethyl-4,5,6,7-tetrahydro-2H-indazol-2-yl)propanoic acid] | 0.081 | 8.5 | 
COC(=O)C1=C(C2CCc3nn(CCC(=O)O)cc3C2)NC(c2nccs2)=NC1c1cccc(F)c1Cl (single isomer, unassigned) [Compound 44b, 3-(5-(6-(2-Chloro-3-fluorophenyl)-5-(methoxycarbonyl)-2-(thiazol-2-yl)-3,6-dihydropyrimidin-4-yl)-4,5,6,7-tetrahydro-2H-indazol-2-yl)propanoic acid] | 0.383 | 21 | 
COC(=O)C1=C(C2CCc3nn(C(C)(C)CC(=O)O)cc3C2)NC(c2nccs2)=NC1c1ccc(F)c(F)c1Cl (single isomer, unassigned) [Compound 82b] | 0.0861 | 15.9 | 
CCOC(=O)C1=C(C2CCc3sc(CCC(=O)O)nc3C2)NC(c2nccs2)=NC1c1ccc(F)c(F)c1Cl (single isomer, unassigned) [Compound 59c, 3-(5-(6-(2-Chloro-3,4-difluorophenyl)-5-(ethoxycarbonyl)-2-(thiazol-2-yl)-3,6-dihydropyrimidin-4-yl)-4,5,6,7-tetrahydrobenzo[d]thiazol-2-yl)propanoic acid] |  | 4.1 | 0.132
CCOC(=O)C1=C(C2CCc3nn([C@H]4C[C@H](C(=O)O)C4)cc3C2)NC(c2nccs2)=NC1c1ccc(F)c(F)c1Cl (stereo partly drawn) [Compound 54, (trans)-3-(5-(6-(2-Chloro-3,4-difluorophenyl)-5-(ethoxycarbonyl)-2-(thiazol-2-yl)-3,6-dihydropyrimidin-4-yl)-4,5,6,7-tetrahydro-2H-indazol-2-yl)cyclobutanecarboxylic acid] |  | 16 | 0.0198
CCOC(=O)C1=C(C2CCc3nc(CCC(=O)O)sc3C2)NC(c2nccs2)=NC1c1ccc(F)c(F)c1Cl (single isomer, unassigned) [Compound 60b, 3-(6-(6-(2-Chloro-3,4-difluorophenyl)-5-(ethoxycarbonyl)-2-(thiazol-2-yl)-3,6-dihydropyrimidin-4-yl)-4,5,6,7-tetrahydrobenzo[d]thiazol-2-yl)propanoic acid] |  | 3.4 | 0.0241
CCOC(=O)C1=C(C2CCc3nn(CCC(=O)O)cc3C2)NC(c2nccs2)=NC1c1ccc(F)cc1C (single isomer, unassigned) [Compound 38a, 3-(5-(5-(Ethoxycarbonyl)-6-(4-fluoro-2-methylphenyl)-2-(thiazol-2-yl)-3,6-dihydropyrimidin-4-yl)-4,5,6,7-tetrahydro-2H-indazol-2-yl)propanoic acid] | 0.0145 | 28.2 | 
CCOC(=O)C1=C(C2CCc3nn(CCC(=O)O)cc3C2)NC(c2ncc(F)cc2F)=NC1c1ccc(F)c(F)c1Cl (single isomer, unassigned) [Compound 43b, 3-(5-(6-(2-Chloro-3,4-difluorophenyl)-2-(3,5-difluoropyridin-2-yl)-5-(ethoxycarbonyl)-3,6-dihydropyrimidin-4-yl)-4,5,6,7-tetrahydro-2H-indazol-2-yl)propanoic acid] | 0.125 | 31.3 | 
